The experiment concerns the target Human TrkA Protein (Homo sapiens (Human), UniProt P04629). Kind of experiment: Evaluation of Binding Activity for Human TrkA Protein (TrkA LanthaScreen Eu Kinase Binding Assay). The following applies: TrkA enzyme, Kinase Tracer 236, TR-FRET, 60 minutes at room temperature. How it is done: (Pharmacological Experimental Example 1): Evaluation of Binding Activity for Human TrkA Protein
Measurement was carried out using TrkA LanthaScreen (registered trademark) Eu Kinase Binding Assay (ThermoFisher SCIENTIFIC). To a 384 well plate (Corning), 2.5 μL of the test compound having various concentrations and diluted with Kinase buffer (ThermoFisher SCIENTIFIC) and 2.5 μL of 15 nM TrkA enzyme (ThermoFisher SCIENTIFIC) were added. Moreover, […] Eu-anti-His Tag antibody (ThermoFisher SCIENTIFIC) and 5 μL of 30 nM Kinase (registered trademark) Tracer 236 (ThermoFisher SCIENTIFIC) were added, followed by reaction at room temperature for 60 minutes. After the reaction, the fluorescence intensity of Europium (Emission wavelength 615 nm) and TR-FRET (Emission wavelength 665 nm) with an excitation wavelength of 340 nm were measured with EnVision 2100 (PerkinElmer) to calculate the fluorescence ratio as the amount of the test compound and the TrkA enzyme bonded. The inhibitory activity (IC50 value) of each test compound was calculated with the fluorescence ratio of the well to which a solvent was added instead of the test compound being 0% and the fluorescence ratio of the well without addition of the TrkA protein being 100%.
In Table 1, […] mean Compounds 1 to 62 synthesized in accordance with Examples 1 to 62 described later.
For orientation: TR-FRET usually uses a lanthanide donor and a delayed reading to cut background.

In patent publication US10399945B2, “Tetrahydronaphthyl urea derivative” (MOCHIDA PHARMACEUTICAL CO., LTD., priority 2017, dated 2019) one finds IC50 data, which are given here for 24 compounds.

Human TrkA Protein, sequence (P04629 33-796): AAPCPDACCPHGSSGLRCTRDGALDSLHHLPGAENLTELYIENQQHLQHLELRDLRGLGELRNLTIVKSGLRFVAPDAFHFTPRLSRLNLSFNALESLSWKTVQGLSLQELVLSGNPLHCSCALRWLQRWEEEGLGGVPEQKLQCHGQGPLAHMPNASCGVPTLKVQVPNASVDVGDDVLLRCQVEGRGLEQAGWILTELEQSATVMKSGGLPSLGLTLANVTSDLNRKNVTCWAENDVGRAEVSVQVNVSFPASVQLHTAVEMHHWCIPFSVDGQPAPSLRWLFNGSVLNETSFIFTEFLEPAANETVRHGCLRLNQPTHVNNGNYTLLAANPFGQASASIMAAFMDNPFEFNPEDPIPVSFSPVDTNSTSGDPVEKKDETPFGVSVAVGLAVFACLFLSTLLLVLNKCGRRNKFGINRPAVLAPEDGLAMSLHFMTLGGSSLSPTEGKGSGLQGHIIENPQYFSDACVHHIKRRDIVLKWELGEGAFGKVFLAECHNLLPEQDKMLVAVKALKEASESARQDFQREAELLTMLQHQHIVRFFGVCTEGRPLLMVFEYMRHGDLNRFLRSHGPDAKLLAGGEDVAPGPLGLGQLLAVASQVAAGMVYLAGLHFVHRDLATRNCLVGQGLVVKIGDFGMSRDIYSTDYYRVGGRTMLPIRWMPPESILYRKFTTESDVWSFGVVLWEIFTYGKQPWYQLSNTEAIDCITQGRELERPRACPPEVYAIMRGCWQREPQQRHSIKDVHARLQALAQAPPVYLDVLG

What is called IC50 is the concentration at which inhibition is half-maximal. As for `Cc1cc(NC(=O)N[C@@H]2c3ccccc3C(C)(C)C[C@H]2O)c(-c2ccccc2)nc1-c1ccc(S(C)(=O)=O)nc1` [Compound 14, 1-((1R,2R)-2-hydroxy-4,4-dimethyl-1,2,3,4-tetrahydronaphthalen-1-yl)-3-(3-methyl-6′-(methylsulfonyl)-6-phenyl-[2,3′-bipyridin]-5-yl)urea], the half-maximal inhibitory concentration (IC50) is no more than 50 nM.

`Cc1cc(NC(=O)N[C@@H]2c3ccccc3C(C)(C)C[C@H]2O)c(-c2ccccc2)nc1-c1cnc(O)nc1` [Compound 19, 1-((1R,2R)-2-hydroxy-4,4-dimethyl-1,2,3,4-tetrahydronaphthalen-1-yl)-3-(6-(2-hydroxypyrimidin-5-yl)-5-methyl-2-phenylpyridin-3-yl)urea]: the IC50 was no more than 50 nM.

Turning to `Cc1cc(NC(=O)N[C@@H]2c3cc(F)c(F)cc3C(C)(C)C[C@H]2O)c(-c2ccccc2)nc1-c1ccc(C#N)cc1` (racemic) [Compound 52, rac-1-(6-(4-cyanophenyl)-5-methyl-2-phenylpyridin-3-yl)-3-((1R,2R)-6,7-difluoro-2-hydroxy-4,4-dimethyl-1,2,3,4-tetrahydronaphthalen-1-yl)urea], the IC50 is no more than 50 nM.

The compound `Cc1nnc(CNC(=O)c2nc(-c3ccccc3)c(NC(=O)N[C@@H]3c4cc(F)c(F)cc4C(C)(C)C[C@H]3O)cc2C)o1` (racemic) [Compound 41, rac-5-(3-((1R,2R)-6,7-difluoro-2-hydroxy-4,4-dimethyl-1,2,3,4-tetrahydronaphthalen-1-yl)ureido)-3-methyl-N-((5-methyl-1,3,4-oxadiazol-2-yl)methyl)-6-phenylpicolinamide] displayed an IC50 of no more than 50 nM.

In the case of `Cc1cc(NC(=O)N[C@@H]2c3ccccc3C(C)(C)C[C@H]2O)c(-c2ccccc2)nc1C(=O)NCC(C)(C)O` (racemic) [Compound 25, rac-N-(2-hydroxy-2-methylpropyl)-5-(3-((1R,2R)-2-hydroxy-4,4-dimethyl-1,2,3,4-tetrahydronaphthalen-1-yl)ureido)-3-methyl-6-phenylpicolinamide], the IC50 is no more than 50 nM.

`Cc1cc(NC(=O)N[C@@H]2c3cc(F)c(F)cc3C(C)(C)C[C@H]2O)c(-c2ccccc2)nc1-c1ccc(CO)cc1` (racemic) [Compound 45, rac-1-((1R,2R)-6,7-difluoro-2-hydroxy-4,4-dimethyl-1,2,3,4-tetrahydronaphthalen-1-yl)-3-(6-(4-(hydroxymethyl)phenyl)-5-methyl-2-phenylpyridin-3-yl)urea]: the IC50 was no more than 50 nM.

The compound `Cc1ncc(-c2nc(-c3ccccc3)c(NC(=O)N[C@@H]3c4ccccc4C(C)(C)C[C@H]3O)cc2C)cn1` [Compound 9, 1-((1R,2R)-2-hydroxy-4,4-dimethyl-1,2,3,4-tetrahydronaphthalen-1-yl)-3-(5-methyl-6-(2-methylpyrimidin-5-yl)-2-phenylpyridin-3-yl)urea] displayed a 50% inhibitory concentration (IC50) of no more than 50 nM.

`COCc1ccc2c(c1)[C@@H](NC(=O)Nc1cc(C)cnc1C1CCOCC1)[C@H](O)CC2(C)C` (racemic) [Compound 33, rac-1-((1R,2R)-2-hydroxy-7-(methoxymethyl)-4,4-dimethyl-1,2,3,4-tetrahydronaphthalen-1-yl)-3-(5-methyl-2-(tetrahydro-2H-pyran-4-yl)pyridin-3-yl)urea]: the IC50 was no more than 50 nM.

With `Cc1ccnc(-c2ccccc2)c1NC(=O)N[C@@H]1c2cc(F)c(F)cc2C(C)(C)C[C@H]1O` (racemic) [Compound 38, rac-1-((1R,2R)-6,7-difluoro-2-hydroxy-4,4-dimethyl-1,2,3,4-tetrahydronaphthalen-1-yl)-3-(4-methyl-2-phenylpyridin-3-yl)urea], the IC50 lay within 50 to 1000 nM.

In turn, `Cc1cnc(C2CCOCC2)c(NC(=O)N[C@@H]2c3ccccc3C(C)(C)C[C@H]2O)c1` (racemic) [Compound 26, rac-1-((1R,2R)-2-hydroxy-4,4-dimethyl-1,2,3,4-tetrahydronaphthalen-1-yl)-3-(5-methyl-2-(tetrahydro-2H-pyran-4-yl)pyridin-3-yl)urea] gave an IC50 of no more than 50 nM.

The compound `Cc1cc(NC(=O)N[C@@H]2c3cc(F)c(F)cc3C(C)(C)C[C@H]2O)c(-c2ccccc2)nc1C(=O)NCC(C)(C)O` (racemic) [Compound 42, rac-5-(3-((1R,2R)-6,7-difluoro-2-hydroxy-4,4-dimethyl-1,2,3,4-tetrahydronaphthalen-1-yl)ureido)-N-(2-hydroxy-2-methylpropyl)-3-methyl-6-phenylpicolinamide] had an IC50 of no more than 50 nM.

`Cc1cnc(-c2ccccc2)c(NC(=O)N[C@@H]2c3ccccc3C(C)(C)C[C@H]2O)c1` [Compound 7, 1-((1R,2R)-2-hydroxy-4,4-dimethyl-1,2,3,4-tetrahydronaphthalen-1-yl)-3-(5-methyl-2-phenylpyridin-3-yl)urea] showed an IC50 of no more than 50 nM.

Turning to `Cc1cc(NC(=O)N[C@@H]2c3ccccc3C(C)(C)C[C@H]2O)c(-c2ccccc2)nc1-c1cnn(C)c1` [Compound 10, 1-((1R,2R)-2-hydroxy-4,4-dimethyl-1,2,3,4-tetrahydronaphthalen-1-yl)-3-(5-methyl-6-(1-methyl-1H-pyrazol-4-yl)-2-phenylpyridin-3-yl)urea], the IC50 is no more than 50 nM.

Take `Cc1cc(NC(=O)N[C@@H]2c3ccccc3C(C)(C)C[C@H]2O)c(-c2ccccc2)nc1-c1ccnc(C(F)(F)F)c1` [Compound 17, 1-((1R,2R)-2-hydroxy-4,4-dimethyl-1,2,3,4-tetrahydronaphthalen-1-yl)-3-(3-methyl-6-phenyl-2′-(trifluoromethyl)-[2,4′-bipyridin]-5-yl)urea]: the half-inhibitory concentration (IC50) is no more than 50 nM.

`Cc1ncc(-c2nc(-c3ccccc3)c(NC(=O)N[C@@H]3c4cc(F)c(F)cc4C(C)(C)C[C@H]3O)cc2C)cn1` (racemic) [Compound 44a]: the IC50 was no more than 50 nM.

In turn, `Cc1cc(NC(=O)N[C@@H]2c3ccccc3C(C)(C)C[C@H]2O)c(-c2ccccc2)nc1C(N)=O` (racemic) [Compound 24, rac-5-(3-((1R,2R)-2-hydroxy-4,4-dimethyl-1,2,3,4-tetrahydronaphthalen-1-yl)ureido)-3-methyl-6-phenylpicolinamide] had an IC50 of no more than 50 nM.

In turn, `Cc1cc(NC(=O)N[C@@H]2c3cc(F)c(F)cc3C(C)(C)C[C@H]2O)c(C2CCOCC2)nc1C(=O)NCC(C)(C)O` (racemic) [Compound 60, rac-5-(3-((1R,2R)-6,7-difluoro-2-hydroxy-4,4-dimethyl-1,2,3,4-tetrahydronaphthalen-1-yl)ureido)-N-(2-hydroxy-2-methylpropyl)-3-methyl-6-(tetrahydro-2H-pyran-4-yl)picolinamide] showed an IC50 of 50 to 1000 nM.

`Cc1ncc(-c2nc(-c3ccccc3)c(NC(=O)N[C@@H]3c4cc(F)ccc4C(C)(C)C[C@H]3O)cc2C)cn1` (racemic) [Compound 34a] came in with a half-inhibitory concentration (IC50) of no more than 50 nM.

`Cc1cc(NC(=O)N[C@@H]2c3ccccc3C(C)(C)C[C@H]2O)c(-c2ccccc2)nc1-c1ccc(C#N)nc1` [Compound 13, 1-(6′-cyano-3-methyl-6-phenyl-[2,3′-bipyridin]-5-yl)-3-((1R,2R)-2-hydroxy-4,4-dimethyl-1,2,3,4-tetrahydronaphthalen-1-yl)urea]: the half-inhibitory concentration (IC50) was no more than 50 nM.

As for `Cc1cc(NC(=O)N[C@@H]2c3cc(F)c(F)cc3C(C)(C)C[C@H]2O)c(-c2ccccc2)nc1-c1ccc(CO)nc1` (racemic) [Compound 55, rac-1-((1R,2R)-6,7-difluoro-2-hydroxy-4,4-dimethyl-1,2,3,4-tetrahydronaphthalen-1-yl)-3-(6′-(hydroxymethyl)-3-methyl-6-phenyl-[2,3′-bipyridin]-5-yl)urea], the IC50 was no more than 50 nM.

Compound `Cc1cc(NC(=O)N[C@@H]2c3ccccc3C(C)(C)C[C@H]2O)c(C2CCOCC2)nc1-c1ccc(O)nc1` (racemic) [Compound 31, rac-1-(6′-hydroxy-3-methyl-6-(tetrahydro-2H-pyran-4-yl)-[2,3′-bipyridin]-5-yl)-3-((1R,2R)-2-hydroxy-4,4-dimethyl-1,2,3,4-tetrahydronaphthalen-1-yl)urea] showed an IC50 of no more than 50 nM.

`Cc1cc(NC(=O)N[C@@H]2c3ccccc3C(C)(C)C[C@H]2O)c(C2CCOCC2)nc1-c1cn[nH]c1` (racemic) [Compound 30, rac-1-((1R,2R)-2-hydroxy-4,4-dimethyl-1,2,3,4-tetrahydronaphthalen-1-yl)-3-(5-methyl-6-(1H-pyrazol-4-yl)-2-(tetrahydro-2H-pyran-4-yl)pyridin-3-yl)urea] showed an IC50 of no more than 50 nM.

Regarding `Cc1cc(NC(=O)N[C@@H]2c3ccccc3C(C)(C)C[C@H]2O)c(-c2ccccc2)nc1-c1ccc(O)nc1` [Compound 20, 1-(6′-hydroxy-3-methyl-6-phenyl-[2,3′-bipyridin]-5-yl)-3-((1R,2R)-2-hydroxy-4,4-dimethyl-1,2,3,4-tetrahydronaphthalen-1-yl)urea], the concentration for half-maximal inhibition (IC50) is no more than 50 nM.

`Cc1cc(NC(=O)N[C@@H]2c3cc(F)c(F)cc3C(C)(C)C[C@H]2O)c(C2CCOCC2)nc1-c1cnc(O)nc1` (racemic) [Compound 62, rac-1-((1R,2R)-6,7-difluoro-2-hydroxy-4,4-dimethyl-1,2,3,4-tetrahydronaphthalen-1-yl)-3-(6-(2-hydroxypyrimidin-5-yl)-5-methyl-2-(tetrahydro-2H-pyran-4-yl)pyridin-3-yl)urea]: the half-inhibitory concentration (IC50) fell in the range of 50 to 1000 nM.
